In patent US20210045385A1, “PYRIDAZINONE-SUBSTITUTED KETOXIMES AS HERBICIDES” (FMC Corporation, priority 2018, published 2021):

What was measured:
Type in all cases: in vivo
[1] = test system: barnyardgrass (Echinochloa crus-galli); test: Test C preemergence, visual plant response rating; settings: Test C, 0 is no effect, 100 is complete control
Method in brief: (§1)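 Seeds sown in a loam–sand blend got a directed preemergence soil spray; postemergence plants (2–10 cm, one- to two-leaf stage) were sprayed with compound in a non-phytotoxic solvent plus surfactant. Injury was scored visually against untreated controls after about 10 d in a greenhouse on a 0–100 scale (100 = complete control).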

[2] = test system: pigweed (Amaranthus retroflexus); test: Test C preemergence, visual plant response rating; settings: Test C, 0 is no effect, 100 is complete control
Method in brief: as §1

[3] = test system: ragweed (common ragweed, Ambrosia artemisiifolia); test: Test C preemergence, visual plant response rating; settings: Test C, 0 is no effect, 100 is complete control
Method in brief: as §1

[4] = test system: Italian ryegrass (Lolium mutiflorum); test: Test C preemergence, visual plant response rating; settings: Test C, 0 is no effect, 100 is complete control
Method in brief: as §1

[5] = test system: foxtail, giant (giant foxtail, Setaria faberi); test: Test C preemergence, visual plant response rating; settings: Test C, 0 is no effect, 100 is complete control
Method in brief: as §1

kochia (Bassia scoparia) [6] = test: Test C preemergence, visual plant response rating; settings: Test C, 0 is no effect, 100 is complete control
Method in brief: as §1

[7] = test system: barnyardgrass (Echinochloa crus-galli); test: Test D flooded paddy test, visual plant response rating; settings: 250 g ai/ha, scale 0 to 100 (0 no effect, 100 complete control), 13 to 15 d
Method in brief: (§2)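 Plants grown to the 2-leaf stage; pots flooded to 3 cm above soil and compound applied directly into paddy water, depth held throughout. Kept in greenhouse 13 to 15 d, then rated visually against untreated controls on a 0–100 scale (0 no effect, 100 complete control).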

[8] = test system: duck salad (Heteranthera limosa); test: as above; settings: 250 g ai/ha, scale 0 to 100 (0 no effect, 100 complete control), 13 to 15 d
Method in brief: as §2

[9] = test system: sedge umbrella (small-flower umbrella sedge, Cyperus difformis); test: as above; settings: 250 g ai/ha, scale 0 to 100 (0 no effect, 100 complete control), 13 to 15 d
Method in brief: as §2

rice (Oryza sativa) = test: as above; settings: 250 g ai/ha, scale 0 to 100 (0 no effect, 100 complete control), 13 to 15 d
Method in brief: as §2

[10] = test system: wheat (Triticum aestivum); test: Test C postemergence, visual plant response rating
Method in brief: as §1

[11] = test system: barnyardgrass (Echinochloa crus-galli); test: Test C postemergence, visual plant response rating
Method in brief: as §1

[12] = test system: galium (catchweed bedstraw, Galium aparine); test: Test C postemergence, visual plant response rating
Method in brief: as §1

[13] = test system: pigweed (Amaranthus retroflexus); test: Test C postemergence, visual plant response rating
Method in brief: as §1

[14] = test system: ragweed (common ragweed, Ambrosia artemisiifolia); test: Test C postemergence, visual plant response rating
Method in brief: as §1

[15] = test system: Italian ryegrass (Lolium mutiflorum); test: Test C postemergence, visual plant response rating
Method in brief: as §1

[16] = test system: blackgrass (Alopecurus myosuroides); test: Test C postemergence, visual plant response rating
Method in brief: as §1

[17] = test system: foxtail, giant (giant foxtail, Setaria faberi); test: Test C postemergence, visual plant response rating
Method in brief: as §1

corn (Zea mays) = test: Test C postemergence, visual plant response rating
Method in brief: as §1

kochia (Bassia scoparia) [18] = test: Test C postemergence, visual plant response rating
Method in brief: as §1

[19] = Test C, postemergence, 125 g ai/ha

Structure (SMILES) | Barnyardgrass plant response rating (0 to 100 scale) ([1]; 31 g ai/ha) | Barnyardgrass plant response rating (0 to 100 scale) ([1]; 125 g ai/ha) | Pigweed plant response rating (0 to 100 scale) ([2]; 31 g ai/ha) | Pigweed plant response rating (0 to 100 scale) ([2]; 125 g ai/ha) | Ragweed plant response rating (0 to 100 scale) ([3]; 31 g ai/ha) | Ragweed plant response rating (0 to 100 scale) ([3]; 125 g ai/ha) | Ryegrass, Italian plant response rating (0 to 100 scale) ([4]; 31 g ai/ha) | Ryegrass, Italian plant response rating (0 to 100 scale) ([4]; 125 g ai/ha) | Foxtail, Giant plant response rating (0 to 100 scale) ([5]; 31 g ai/ha) | Foxtail, Giant plant response rating (0 to 100 scale) ([5]; 125 g ai/ha) | Kochia plant response rating (0 to 100 scale) (kochia (Bassia scoparia) [6]; 31 g ai/ha) | Kochia plant response rating (0 to 100 scale) (kochia (Bassia scoparia) [6]; 125 g ai/ha) | Plant response rating, Barnyardgrass (Flood) [7] | Plant response rating, Ducksalad (Flood) [8] | Plant response rating, Sedge, Umbrella (Flood) [9] | Plant response rating, Rice (Flood) (rice (Oryza sativa)) | Wheat plant response rating (0 to 100 scale) ([10]; Postemergence, 31 g ai/ha) | Wheat plant response rating (0 to 100 scale) [10, 19] | Barnyardgrass plant response rating (0 to 100 scale) ([11]; Postemergence, 31 g ai/ha) | Barnyardgrass plant response rating (0 to 100 scale) [11, 19] | other results
C#CCO/N=C(/c1cc(Cl)cc(Br)c1)c1c(O)c(C)nn(C)c1=O [Compound 291] | 0 | 100 | 10 | 80 | 60 | 100 | 10 | 100 | 50 | 100 | 0 | 90 | 0 | 25 | 45 | 0 | 30 | 90 | 20 | 70 | Galium plant response rating (0 to 100 scale) ([12]; Postemergence, 31 g ai/ha): 100; Galium plant response rating (0 to 100 scale) [12, 19]: 100; Pigweed plant response rating (0 to 100 scale) ([13]; Postemergence, 31 g ai/ha): 30; Pigweed plant response rating (0 to 100 scale) [13, 19]: 60; Ragweed plant response rating (0 to 100 scale) ([14]; Postemergence, 31 g ai/ha): 100; Ragweed plant response rating (0 to 100 scale) [14, 19]: 100; Ryegrass, Italian plant response rating (0 to 100 scale) ([15]; Postemergence, 31 g ai/ha): 90; Ryegrass, Italian plant response rating (0 to 100 scale) [15, 19]: 100; Blackgrass plant response rating (0 to 100 scale) ([16]; Postemergence, 31 g ai/ha): 0; Blackgrass plant response rating (0 to 100 scale) [16, 19]: 70; Foxtail, Giant plant response rating (0 to 100 scale) ([17]; Postemergence, 31 g ai/ha): 40; Foxtail, Giant plant response rating (0 to 100 scale) [17, 19]: 80; Corn plant response rating (0 to 100 scale) (corn (Zea mays); Postemergence, 31 g ai/ha): 20; Corn plant response rating (0 to 100 scale) (corn (Zea mays); [19]): 30; Kochia plant response rating (0 to 100 scale) (kochia (Bassia scoparia) [18]; Postemergence, 31 g ai/ha): 50; Kochia plant response rating (0 to 100 scale) (kochia (Bassia scoparia) [18]; [19]): 100
C#CCO/N=C(\c1cc(Cl)cc(Br)c1)c1c(O)c(C)nn(C)c1=O [Compound 292] | 60 | 100 | 50 | 100 | 90 | 100 | 80 | 100 | 70 | 100 | 30 | 100 | 0 | 45 | 55 | 0 | 60 | 100 | 30 | 70 | Galium plant response rating (0 to 100 scale) ([12]; Postemergence, 31 g ai/ha): 100; Galium plant response rating (0 to 100 scale) [12, 19]: 100; Pigweed plant response rating (0 to 100 scale) ([13]; Postemergence, 31 g ai/ha): 60; Pigweed plant response rating (0 to 100 scale) [13, 19]: 90; Ragweed plant response rating (0 to 100 scale) ([14]; Postemergence, 31 g ai/ha): 100; Ragweed plant response rating (0 to 100 scale) [14, 19]: 100; Ryegrass, Italian plant response rating (0 to 100 scale) ([15]; Postemergence, 31 g ai/ha): 100; Ryegrass, Italian plant response rating (0 to 100 scale) [15, 19]: 100; Blackgrass plant response rating (0 to 100 scale) ([16]; Postemergence, 31 g ai/ha): 0; Blackgrass plant response rating (0 to 100 scale) [16, 19]: 80; Foxtail, Giant plant response rating (0 to 100 scale) ([17]; Postemergence, 31 g ai/ha): 60; Foxtail, Giant plant response rating (0 to 100 scale) [17, 19]: 100; Corn plant response rating (0 to 100 scale) (corn (Zea mays); Postemergence, 31 g ai/ha): 0; Corn plant response rating (0 to 100 scale) (corn (Zea mays); [19]): 40; Kochia plant response rating (0 to 100 scale) (kochia (Bassia scoparia) [18]; Postemergence, 31 g ai/ha): 60; Kochia plant response rating (0 to 100 scale) (kochia (Bassia scoparia) [18]; [19]): 100
